Test results published in US5573772A, “Methods for protecting tissues and organs from ischemic damage” (priority 1994, dated 1996).

Experiments:
rabbit heart = assay: Infarct size in isolated rabbit hearts, A3-receptor mediation of preconditioning, Example 3; details: BW A1433 200 nM + PC
Method: New Zealand white rabbits of either sex, between 1.4-2.4 kg, were anesthetized with intravenous sodium pentobarbital (30 mg/kg). The neck was opened and a tracheotomy was performed. The rabbits were ventilated with 100% oxygen via a positive pressure respirator (MD industries, Mobile, Ala.). Ventilation rate was 30-35 breaths per minute, and tidal volume was approximately 15 ml. A left thoracotomy was performed in the fourth intercostal space and pericardium was opened to expose the heart. A 2-0 silk suture with an RB taper needle was passed around a branch of the left coronary artery, and the end of the silk were threaded through a small vinyl tube to form a snare. The heads were quickly excised and mounted on a Langendorff apparatus and perfused at constant pressure with Krebs buffer containing (in mM) 118.5 NaCl, 4.7 KCl, 1.2 MgSO4, 1.2 K2 PO4, 24.3 NaHCO3, 2.5 CaCl2 and 10 glucose. […] The temperature of the perfusate was maintained at 37° C. The perfusion pressure was kept at 75 mm Hg. Pacing electrodes were placed on the right atrium and all hearts were paced at 200 beats/minute with pulses of 5 volts and 4 msec duration to keep the heart rate constant. A fluid-filled latex balloon connected to a transducer via PE240 tubing was inserted into the left ventricle. Balloon volume was adjusted to set the left ventricular diastolic pressure at 10 mm Hg at the beginning of the experiment. Total coronary artery flow was measured by timed collection of buffer from the chamber into a graduated cylinder. Regional ischemia was effected by pulling the snare tight and clamping the tube with a hemostat. Global ischemia was performed by clamping the inflow tubing of the Langendorff apparatus. Reperfusion was achieved by releasing the restriction. All hearts were allowed to equilibrate for 20 minutes before the experiments were started. Heart rate (HR), coronary flow (CF) and left ventricular developed pressure (LVDP) were recorded at the point just before and at the end of each treatment with the pacing momentarily turned off. […] The hearts were removed from the Langendorff apparatus, weighed and then frozen. The hearts were cut into 2 mm transverse slices. The slices were thawed and incubated in 1% triphenyl tetrazolium chloride (TTC) in pH 7.4 buffer for 20 minutes at 37° C. TTC reacts with NADH and dehydrogenase enzymes and stains all tissue still having them to a deep red color. […] After staining, the area of infarcted tissue (TTC negative tissue) and the risk zone (area lacking fluorescence under ultraviolet light) in each slice were traced. The area of infarct and risk zone were determined by planimetry of the tracing. The volume of infarcted myocardium and myocardium at risk was then calculated by multiplying the planimetered areas by the slice thickness. The methods utilized in this example are identical to those described in Example 1. All hearts received 30 minutes of regional ischemia as described in Example 1. The control group (n=8) hearts received only 30 minutes of ischemia. Preconditioned (PC) hearts (n=10) received 5 minutes of global ischemia and 10 minutes of reperfusion prior to the regional ischemia. Adenosine (ADO) treated hearts (n=6) received 10 μM adenosine for 5 minutes prior to regional ischemia. APNEA treated hearts (n=6) received 65 μM APNEA for 5 minutes prior to regional ischemia. In groups receiving the nonselective adenosine blocker, 8-SPT, the blocker was included in the perfusate for 15 minutes at 100 μM starting 5 minutes before the exposure of ADO (ADO-SPT group, n=6), or APNEA (APNEA-SPT group, n=6 ) or 5 minutes before and after 5 minutes of preconditioning ischemia (PC-SPT group, n=5). […] For the PC-BW group (n=5), the A3-receptor antagonist, BW A1433, [Linden J, et al., Molecular Pharmacology 44:524-532 (1993)], was administered at a dose of 200 nM in the perfusate for 5 minutes before and 5 minutes after PC ischemia.

heart = details: intercoronarily infused before an ischemic insult; cited from earlier work
[1] = system: human A3 adenosine receptor; assay: A3 adenosine receptor binding assay, [125I]-ABA displacement on CHO cell membranes, Example 5
Method: Chinese hamster ovary (CHO) cells, obtained from ATCC, expressing the cloned human A3 adenosine receptor [for example, 5 L cells or a mutagenized A3 adenosine receptor (e.g., A3K2)] were grown under standard cell culture conditions and harvested by mechanical agitation in cell culture medium. All further procedures were carried out at 4° C. The cells were disrupted using a Polytron and the resulting cell membranes collected by centrifugation at 50,000 g for 20 minutes. The pellet was suspended in 10 mM Tris-HCl buffer, pH 7.4, (10^6 cells/mL) using the Polytron and centrifuged at 50,000 g for 20 minutes. […]
For the binding assay, 50 μg of membrane protein were incubated with 0.4 nM [^125 l]-aminobenzyladenosine (ABA, custom synthesized by DuPont:NEN; specific activity=2200 Ci/mmol) in 50 mM Tris-HCl buffer, pH 7.4, containing 5 mM MgCl2 and 1 unit/mL adenosine deaminase in a total volume of 100 μL for 2 hours at room temperature. Membranes containing bound radioactivity were collected on Whatman GF/B filters using a Brandel Cell Harvester and washed 3 times with ice-cold 50 mM Tris-HCl buffer, pH 7.4. Radioactivity was quantified using a Beckman gamma counter. […] The specific binding was then calculated by subtracting this non-specific binding value from the total binding.

[2] = system: A3 adenosine receptor (R226); details: cited from earlier work
intact rabbit = assay: Bradycardia and mean arterial pressure in the anesthetized rabbit, Example 2; details: I-APNEA 0.25 mg/kg
[3] = system: intact, blood perfused rabbit heart; assay: Infarct size in the intact anesthetized rabbit, 30 min ischemia and reperfusion, Example 2; details: I-APNEA 0.25 mg/kg iv; control 52±4.3%, PC 9±4.1%
Method: In this study, the effect of the adenosine receptor agonist, I-APNEA, on infarct size in the anesthetized rabbit was compared to the protection observed with ischemic preconditioning (PC).
New Zealand White rabbits (1.5-2.5 kg) were anaesthetized with pentobarbital sodium (40 mg/kg) administered via a catheter in a marginal ear vein. The animals were intubated with a pediatric cuffed endotracheal tube and ventilated with room air using a positive pressure respirator (Harvard Apparatus, Natick, Mass.). The heart was exposed in situ via an incision between the left 4th and 5th ribs, and a branch of the left coronary artery was isolated, using a 3-0 silk suture on RB-taper needle, for later ligation to induce 30 minutes of ischemia followed by 180 minutes of reperfusion. A catheter inserted into a femoral vein was used for administration of fluids and drugs. Infarct size was measured using the method described in the section entitled "Measurement of Infarct Size and Risk Area" in Example 1.
All animals received 30 minutes of regional ischemia, induced by tightening the suture placed around the coronary artery. Following the 30 minutes of ischemia, the suture was loosened, and reperfusion was allowed for the ensuing 180 minutes. Control animals received only the 30 minutes of ischemia and 180 minutes of reperfusion (n=9). Ischemic preconditioning (PC) was induced by 5 minutes of occlusion of the coronary artery followed by 10 minutes of reperfusion before the 30 minutes of occlusion (n=7). In a separate group of rabbits, I-APNEA was delivered intravenously as a slow bolus injection (0.25 mg/kg), beginning 15 minutes prior to the 30 minutes occlusion (n=8). In two additional groups of rabbits, the effects of the A1-selective adenosine receptor blocker, DPCPX, were tested against the effects of PC (n=6) and I-APNEA (n=8). […] At the end of 120 minutes of reperfusion, all animals were killed by an overdose of pentobarbital, and risk area and infarct size were measured.

## CCCn1c(=O)c2[nH]c(-c3ccc(/C=C/C(=O)O)cc3)nc2n(CCC)c1=O [BW A1433]
Rabbit heart
  Infarct size (of the risk area): 26.2±3.2%

## OC[C@H]1O[C@@H](n2cnc3c(NC4CCCC4)nc(Cl)nc32)[C@H](O)[C@@H]1O [CCPA, 2-chloro-N^6-cyclopentyladenosine]
heart
  Ischemic preconditioning effects: beneficial ischemic preconditioning effects

## Nc1ccc(CNc2ncnc3c2ncn3[C@@H]2O[C@H](CO)[C@@H](O)[C@H]2O)cc1I [I-ABA, N^6-(4-amino-3-iodobenzyl)adenosine]
[1]; A3K2 line cell membranes, 0.4 nM [125I]-ABA, read-out: IC50, displacement of [125I]ABA specific binding
  IC50: 2 nM

## Nc1ccc(CCNc2ncnc3c2ncn3[C@@H]2O[C@H](CO)[C@@H](O)[C@H]2O)cc1I [I-APNEA, N^6-2-(4-amino-3-iodophenyl)ethyladenosine]
[2]
  Binding to R226: bind
Intact rabbit
  Mean arterial pressure: fall in mean arterial pressure
[3]
  Infarct size: 17±3.8%

## CCNC(=O)[C@H]1O[C@@H](n2cnc3c(N)ncnc32)[C@H](O)[C@@H]1O [NECA, 5'-N-ethylcarboxamidoadenosine]
[2]
  Binding to R226: bind

## C[C@H](Cc1ccccc1)Nc1ncnc2c1ncn2[C@@H]1O[C@H](CO)[C@@H](O)[C@H]1O [R-PIA, (R)-N-(2-phenyl-1-methylethyl)adenosine]
heart
  Ischemic preconditioning effects: beneficial ischemic preconditioning effects

## CCCn1c(=O)c2[nH]c(-c3ccc(OCC(=O)NCCN)cc3)nc2n(CCC)c1=O [XAC]
[2]
  Binding to R226: not to bind

## Nc1ccc(CNc2ncnc3c2ncn3[C@@H]2O[C@H](CO)[C@@H](O)[C@H]2O)cc1[125I] [[^125 l]ABA, [^125 l]-aminobenzyladenosine]
[1]; radiolabel, A3K2 cells
  Binding to human A3 receptors, affinity: high affinity
